{
  "source": "patent US20110251158A1",
  "about": "“FULLERENE THERAPIES FOR INFLAMMATION AND INHIBITION OF BUILD-UP OF ARTERIAL PLAQUE” (Luna Innovations Incorporated, priority 2008, published 2011)",
  "key": {"[1]": {"tested_on": "E74-like factor 2 (ELF-2)", "assay": "ELF-2 gene expression (microarray) in MC", "type": "cell-based, human", "conditions": "gene level", "procedure": "(§1) Mast cells (1×10^7 cell/condition; each condition performed in triplicate) were incubated with or without fullerene derivatives as above and incubated with or without anti-FcεRI antibodies for 10 minutes, supernatants were removed (to remove pre-formed mediators), and fresh warm medium containing anti-FcεRI antibodies (14 ml) added for 2 hours. Cells were centrifuged, the supernatant and the pellet immediately frozen and microarray performed using the Human Whole Genome OneArray™ gene expression profiling service (Phalanx Biotech Group). Separate samples, assayed in parallel were lysed and protein expression analyzed by Western blotting or flow cytometry (CD45) as described in Kepley, C. L., Pfeiffer, J., Wilson, B. W., Schwartz, L. B., and Oliver, J. M. J. Leukocyte Biol. 64, 474-483 (1998).\n(§2) In order to examine the genes most affected by fullerene derivative preincubation the resulting values were sorted and filtered the following way. First, the mean (±SD) of the six values from each condition for each of the 30,970 genes was calculated. Second, only normalized value intensities of >100 were included so that follow up detection of protein levels would be more likely to be successful. […]"}, "[2]": {"tested_on": "Peripheral blood basophils (PBB)", "assay": "Anti-IgE-induced histamine release (degranulation) from PBB", "type": "cell-based, human", "procedure": "PBB were obtained from two sources: donors recruited under an IRB-approved protocol after informed consent or from leukopheresis packs obtained from the Johns Hopkins Hemapheresis Center. PBB were purified to ≧99% purity as described in Vonakis, B. M., Gibbons S Jr, Sora, R., Langdon, J. M., and MacDonald, S. M. J. Allergy Clin. Immunol. 108, 822-831 (2001), and Miura, K., Saini, S. S., Gauvreau, G., and MacGlashan, D. W., Jr. J. Immunol. 167, 2282-2291 (2001). Purified PBB were incubated overnight (20 hours) with a fullerene derivative (5 μg/ml) or vehicle control and a minimal (non-stimulatory) concentration of IL-3 (2 pg/ml) to prevent apoptosis. The next day, cells were washed and aliquoted for the histamine release assay by treatment with 0.1 mg/ml of goat polyclonal anti-IgE, buffer alone (spontaneous release) or perchloric acid (total histamine determination). Histamine was quantified in cell free supernatants using automated fluorimetry in duplicate. In a second set of experiments the two fullerene derivatives (at 5 μg/ml) were incubated with PBB for 20 hours, washed cells stimulated with 15 ng/ml anti-IgE for 18 hours in duplicate and supernatants collected for quantification of IL-13 by in-house ELISA. The optimal doses of anti-IgE are chosen for activation of PBB."}, "[3]": {"tested_on": "mice", "assay": "Liver toxicity: serum ALT and AST activity after FD injection", "type": "in vivo", "conditions": "tail vein injection", "procedure": "To examine potential toxicity, alanine aminotranferease (ALT) and aspartate aminotransferase (AST) were measured in serum. These enzymes leak out into the general circulation when the liver is injured. Mice were treated with or without 1000 μg/100 μl (50 times more than used for the in vivo study) of TGA or Inos by tail vein injection and i.p. After two and 14 days mice were sacrificed and blood, obtained by cardiac puncture. ALT and AST activity were measured as described in Booth, G., Newham, P., Barlow, R., Raines, S., Zheng, B., and Han, S. Autoimmunity 41, 512-521 (2008). Data is presented as an average of 4 (Untreated) or 4 (Treated) mice±Standard Deviation."}, "[4]": {"tested_on": "AKT phosphorylation", "assay": "Western blotting of FcεRI-activated phospho-signaling in MC: AKT", "type": "cell-based, human", "conditions": "10 μg/mL overnight", "procedure": "Cell lysate preparation and Western blotting were performed using a protocol optimized for extracting phospho-proteins from human MC. Tkaczyk, C., Metcalfe, D. D., and Gilfillan, A. M. J. Immunol. Methods 268, 239-243 (2002). Following activation, cells were lysed directly in boiling denaturing sample buffer consisting of tris-buffered saline with triton-X-100 (0.5%) and protease and phosphatase inhibitors. The cell suspension was then passed through a 20-gauge needle, boiled, and centrifuged to remove cell debris. Proteins were separated on 8% or 10% NuPage Tris-Bis gels using Licor running buffer. Western blotting was performed using Licor blocking buffer and IR800 and IR700 anti-rabbit F(ab)2 secondary Abs (1:1000). Primary Abs were from Cell Signaling Technologies or Santa Cruz unless otherwise noted. Band intensities were captured using the Odyssey Imaging System and bands quantified by measuring the number of pixels in each band using a box drawn for the same area of measurement for each separate blot. The band intensity was then normalized for loading by dividing the number of pixels in each band with the housekeeping band intensity (β-actin) performed on the same blot.\nMC were pretreated with Inos or TGA (10 μg/mL) overnight at 37° C./6% CO2. The next day washed cells were activated with or without anti-FcεRI (1 μg/mL) for the indicated times and lysed using protocols described above. Two separate 10% Tris-Glycine gels were used for sodium dodecyl sulfate polyacrylamide gel electrophoresis (SDS-PAGE) and Western blotting performed with the indicated phosphorylation-specific (i.e., phosph-Lyn) antibodies. To ensure equal loading, an antiactin antibody was used in parallel. The intensity of each band was detected and quantified using an Odyssey imaging system. Band intensities are presented as a ratio compared to antiactin band intensities probed in the same lane and presented for each time point in the colored graphs on the right side. Results are representative of three separate experiments. […]"}, "[5]": {"tested_on": "MC-induced anaphylaxis", "assay": "MC-dependent anaphylaxis model: core body temperature", "type": "in vivo, mice (C57BL/6J)", "conditions": "100 ng i.p. before DNP-BSA challenge"}, "[6]": {"tested_on": "Lyn", "assay": "Lyn gene (microarray) and protein (Western blotting) expression in MC", "type": "cell-based, human", "procedure": "as §1, with “and fresh warm medium containing anti-FcεRI antibodies (14 ml) added for 2 hours.” left out\nas §2"}},
  "data": [
    {"substance": "C70-tetraglycolic acid [TGA]", "values": [
      {"measurement": "ELF-2 downregulated", "setting": "[1]", "value": 47, "unit": "%"},
      {"measurement": "Mean % Inhibition of Histamine Release", "setting": "[2]; 5 μg/ml FD vs vehicle control, listed as C70-TGA", "value": 15.8, "unit": "%"},
      {"measurement": "FD + anti-IgE (mean ± SEM), histamine release", "setting": "[2]; 5 μg/ml FD, 20 hours, anti-IgE", "value": "39.4 ± 2.3"},
      {"measurement": "maximal inhibition of anti-IgE-induced histamine release", "setting": "[2]; 50 µg/mL dose, mean±SEM, n=2-3", "value": "37.8±16.25", "unit": "%"},
      {"measurement": "IC50 (degranulation)", "setting": "[2]; PBB, maximum inhibition set to 100%", "value": 9.9, "unit": "mg/L"},
      {"measurement": "Alanine aminotransferase (ALT) Activity", "setting": "[3]; Day 2", "value": 29.2},
      {"measurement": "Aspartate aminotransferase (AST) Activity", "setting": "[3]; Day 2", "value": 8.5},
      {"measurement": "Alanine aminotransferase (ALT) Activity", "setting": "[3]; Day 14", "value": 36.7},
      {"measurement": "Aspartate aminotransferase (AST) Activity", "setting": "[3]; Day 14", "value": 29.8},
      {"measurement": "inhibited AKT phosphorylation", "setting": "[4]; 3 minutes anti-FcεRI", "value": 10, "unit": "%"},
      {"measurement": "inhibited AKT phosphorylation", "setting": "[4]; 5 minutes anti-FcεRI", "value": 36, "unit": "%"},
      {"measurement": "inhibited AKT phosphorylation", "setting": "[4]; 10 minutes anti-FcεRI", "value": 43, "unit": "%"},
      {"measurement": "anaphylactic-induced drop in core body temperature", "setting": "[5]", "value": "significant reduction"},
      {"measurement": "Lyn gene expression levels reduced", "setting": "[6]; at 2 hours", "value": 51, "unit": "%"},
      {"measurement": "Lyn inhibition at the protein level", "setting": "[6]; at 6 hours", "value": 92, "unit": "%"}
    ]}
  ]
}
